Measurements reported in patent publication US6872745B2, “Antipicornaviral compounds and compositions, their pharmaceutical uses, and materials for their synthesis” (Agouron Pharmaceuticals, Inc., priority 2000, dated 2005).

What was measured:
[1] = system: HRV-14; test: Antirhinoviral H1-HeLa cell culture assay (XTT cell protection); type: cell-based, human rhinovirus; conditions: Rhinovirus B, HRV14, H1-HeLa, HRV-14, H1-HeLa cells
Method: (§1) In this cell protection assay, the ability of compounds to protect cells against HRV infection was measured by the XTT dye reduction method, which is described in Weislow et al., J. Natl. Cancer Inst. (1989), vol. 81, 577-586. H1-HeLa cells were infected with HRV-14 at a multiplicity of infection (m.o.i.) of 0.13 (virus particles/cell) or mock-infected with medium only. Infected or mock-infected cells were resuspended at 8×10^5 cells per ml, and incubated with appropriate concentrations of the compounds to be tested. Two days later, XTT/PMS was added to test plates and the amount of formazan produced was quantified spectrophotometrically at 450/650 nm. The EC50 value was calculated as the concentration of compound that increased the percentage of formazan production in compound-treated, virus-infected cells to 50% of that produced by compound-free, mock-infected cells. The 50% cytotoxic dose (CC50) was calculated as the concentration of compound that decreased the percentage of formazan produced in compound-treated, mock-infected cells to 50% of that produced by compound-free, mock-infected cells. The therapeutic index (TI) was calculated by dividing the CC50 value by the EC50 value.
(§2) All strains of human rhinovirus (HRV) for use in this assay were purchased from American Type Culture Collection (ATCC), except for HRV serotype-14 (produced from the infectious cDNA clone constructed by Dr. Robert Rueckert, Institute for Molecular Virology, University of Wisconsin, Madison, Wis.). HRV stocks were propagated and viral assays were performed in H1-HeLa cells (ATCC). Cells were grown in minimal essential medium with 10% fetal bovine serum, available from Life Technologies (Gaithersburg, Md.).

[2] = system: HRV-1A; test: as above; type: cell-based, human rhinovirus; conditions: Rhinovirus A, HRV1A, H1-HeLa cells
Method: as §1, §2

[3] = system: HRV-25; test: as above; type: cell-based; conditions: Human rhinovirus sp., HRV25; HRV-25, H1-HeLa cells
Method: as §1, §2

[4] = system: HRV-3; test: as above; type: cell-based; conditions: Human rhinovirus sp., HRV3; HRV-3, H1-HeLa cells
Method: as §1, §2

[5] = system: HRV-39; test: as above; type: cell-based; conditions: Human rhinovirus sp., HRV39; HRV-39, H1-HeLa cells
Method: as §1, §2

[6] = system: HRV-9; test: as above; type: cell-based; conditions: Human rhinovirus sp., HRV9; HRV-9, H1-HeLa cells
Method: as §1, §2

[7] = system: HRV-10; test: as above; type: cell-based; conditions: Human rhinovirus sp., HRV10; HRV-10, H1-HeLa cells
Method: as §1, §2

[8] = system: H1-HeLa cells; test: Cytotoxicity in mock-infected cells of the antirhinoviral assay (XTT); type: cell-based
Method: as §1, §2

[9] = as above; type: cell-based; conditions: human, H1-HeLa cells
Method: as §1, §2

[10] = molecular target: T1, rhinovirus 3C protease, serotype 14 (Human rhinovirus 14, UniProt P03303); test: Inhibition of rhinovirus 3C protease (FRET assay, enzyme start); type: biochemical; conditions: HRV-14 3C protease, progress curves, read-out: Kobs/I
T1 construct: Recombinant rhinovirus 3C proteases; made in house
T1 sequence (P03303 1538-1719): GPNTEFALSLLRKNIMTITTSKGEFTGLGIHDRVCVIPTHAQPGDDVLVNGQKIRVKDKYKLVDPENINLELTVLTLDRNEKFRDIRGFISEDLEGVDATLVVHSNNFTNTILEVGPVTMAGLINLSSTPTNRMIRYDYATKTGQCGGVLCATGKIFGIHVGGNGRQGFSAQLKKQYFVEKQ
Method: Stock solutions (50 mM, in DMSO) of various compounds were prepared; dilutions were in the same solvent. Recombinant rhinovirus 3C proteases (see Birch et al., “Purification of recombinant human rhinovirus 14 3C protease expressed in Escherichia coli,” Protein Expr. Pur. (1995), vol. 6(5), 609-618) from serotypes 14, 16, and 2 were prepared by the following standard chromatographic procedures: (1) ion exchange using Q Sepharose Fast Flow from Pharmacia; (2) affinity chromatography using Affi-Gel Blue from Biorad; and (3) sizing using Sephadex G-100 from Pharmacia. Each assay sample contained 2% DMSO, 50 mM tris pH 7.6, 1 mM EDTA, a test compound at the indicated concentration, approximately 1 μM substrate, and 50-100 nM protease. The kobs/I values were obtained from reactions initiated by addition of enzyme rather than substrate. RVP activity was measured in the fluorescence resonance energy transfer assay. The substrate was (N-terminal) DABCYL-(Gly-Arg-Ala-Val-Phe-Gln-Gly-Pro-Val-Gly)-EDANS. In the uncleaved peptide, the EDANS fluorescence was quenched by the proximal DABCYL moiety. When the peptide was cleaved, the quenching was relieved, and activity was measured as an increase in fluorescence signal. The tabulated data in the column designated kobs/[I] were measured from progress curves in enzyme start experiments.

[11] = system: HRV-2; test: Antirhinoviral H1-HeLa cell culture assay (XTT cell protection); type: cell-based, human rhinovirus; conditions: Rhinovirus A, HRV2; HRV-2, H1-HeLa cells
Method: as §1, §2

[12] = system: HRV-87; test: as above; type: cell-based; conditions: Human rhinovirus sp., HRV87; HRV-87, H1-HeLa cells
Method: as §1, §2

[13] = system: HRV-16; test: as above; type: cell-based; conditions: Human rhinovirus sp., HRV16; HRV-16, H1-HeLa cells
Method: as §1, §2

Compound | EC50 [1] | EC50 [2] | EC50 [3] | EC50 [4] | EC50 [5] | EC50 [6] | EC50 [7] | CC50 ([8]; table line HRV-1A) | CC50 ([8]; table line HRV-3) | CC50 ([8]; table line HRV-9) | CC50 ([8]; table line HRV-10) | CC50 ([8]; table line HRV-25) | CC50 ([8]; table line HRV-39) | CC50 at 2 days ([9]; table line HRV-14) | kinact/KI [10] | EC50 [11] | EC50 [12] | EC50 [13] | CC50 ([8]; table line HRV-2) | CC50 ([8]; table line HRV-14) | also measured
C#CC[C@H](NC(=O)c1ccc(-c2ccccc2C(F)(F)F)[nH]1)C(=O)N[C@H](/C=C/C(=O)OCC)C[C@@H]1CCNC1=O [Compound 29, 5-(2-Oxo-pyrrolidin-3S-yl)-4S-(2S-{[5-(2-trifluoromethyl-phenyl)-1H-pyrrole-2-carbonyl]-amino}-pent-4-ynoylamino)-pent-2(trans)-enoic acid ethyl ester] | 150 nM | 54 nM | 316 nM | 65 nM | 180 nM | 119 nM | 27 nM | > 10000 nM | > 10000 nM | > 10000 nM | > 10000 nM | > 10000 nM | > 10000 nM | > 10000 nM | 103000 M⁻¹ s⁻¹ |  |  |  |  |  | 
C#CC[C@H](CC(=O)c1ccc(-c2ccccc2C)[nH]1)C(=O)N[C@H](/C=C/C(=O)OCC)C[C@@H]1CCNC1=O [Compound 39, 5-(2-Oxo-pyrrolidin-3S-yl)-4S-{2R-[2-oxo-2-(5-o-tolyl-1H-pyrrol-2-yl)-ethyl]-pent-4-ynoylamino}-pent-2(trans)-enoic acid ethyl ester] | 214 nM | 338 nM | 1320 nM | 595 nM | 518 nM | 665 nM | 428 nM |  | > 10000 nM | > 10000 nM | > 10000 nM | > 10000 nM | > 10000 nM |  | 20100 M⁻¹ s⁻¹ | 214 nM | 83 nM | 952 nM | > 10000 nM | > 10000 nM | CC50 ([8]; table line HRV-16): > 10000 nM; CC50 ([8]; table line HRV-87): > 10000 nM; CC50 at 2 days ([9]; table line HRV-1A): > 10000 nM
C#CC[C@H](CC(=O)c1ccc(-c2ccccc2Cl)[nH]1)C(=O)N[C@H](/C=C/C(=O)OCC)C[C@@H]1CCNC1=O [Compound 38, 4S-(2R-{2-[5-(2-Chloro-phenyl)-1H-pyrrol-2-yl]-2-oxo-ethyl}-pent-4-ynoylamino)-5-(2-oxo-pyrrolidin-3S-yl)-pent-2(trans)-enoic acid ethyl ester] | 136 nM | 537 nM | 1510 nM | 605 nM | 593 nM | 885 nM | 446 nM |  | > 10000 nM | > 10000 nM | > 10000 nM | > 10000 nM | > 10000 nM |  | 33000 M⁻¹ s⁻¹ | 353 nM | 97 nM | 1490 nM | > 10000 nM | > 10000 nM | CC50 ([8]; table line HRV-16): > 10000 nM; CC50 ([8]; table line HRV-87): > 10000 nM; CC50 at 2 days ([9]; table line HRV-1A): > 10000 nM
CCOC(=O)/C=C/[C@H](C[C@@H]1CCNC1=O)NC(=O)[C@H](Cc1ccccc1)NC(=O)c1ccc(-c2ccccc2C(F)(F)F)[nH]1 [Compound 28, 5-(2-Oxo-pyrrolidin-3S-yl)-4S-(3-phenyl-2S-{[5-(2-trifluoromethyl-phenyl)-1H-pyrrole-2-carbonyl]-amino}-propionylamino)-pent-2(trans)-enoic acid ethyl ester] | 59 nM | 213 nM |  |  |  |  | 66 nM | > 1000 nM |  |  | > 1000 nM |  |  | > 1000 nM | 340000 M⁻¹ s⁻¹ |  |  |  |  |  | 
C#CC[C@H](CC(=O)c1ccc(-c2ccccc2C(F)(F)F)[nH]1)C(=O)N[C@H](/C=C/C(=O)OCC)C[C@@H]1CCNC1=O [Compound 36] |  | 145 nM | 329 nM | 145 nM | 235 nM | 144 nM | 330 nM | > 10000 nM | > 10000 nM | > 10000 nM | > 10000 nM | > 10000 nM | > 10000 nM | > 10000 nM |  |  |  |  |  |  | 
